Experimental data taken from the NIST ThermoML archive (doi:10.1021/je060271a).
“And” between values parts separate entries of the source, which are not always exact repeats. Identical values can stand only once. Numbers after ± are expanded uncertainties.

Conditions: Liquid, Vibrating tube method

CCCCCCC(=O)OCC(COC(=O)CCCCCC)(COC(=O)CCCCCC)COC(=O)CCCCCC [pentaerythritol tetraheptanoate]
Conditions	mass density
343.14 K, 22987 kPa	957 ± 1.2 kg/m3
343.14 K, 23023 kPa	956.9 ± 1.2 kg/m3
343.14 K, 23067 kPa	956.9 ± 1.2 kg/m3
343.14 K, 23104 kPa	956.9 ± 1.2 kg/m3
343.14 K, 23148 kPa	957 ± 1.2 kg/m3
343.14 K, 23186 kPa	957 ± 1.2 kg/m3
343.14 K, 23224 kPa	956.9 ± 1.2 kg/m3
343.14 K, 23269 kPa	957.1 ± 1.2 kg/m3
343.14 K, 23308 kPa	957.1 ± 1.2 kg/m3
343.14 K, 23346 kPa	957.1 ± 1.2 kg/m3
343.14 K, 23393 kPa	957.2 ± 1.2 kg/m3
343.14 K, 23433 kPa	957.2 ± 1.2 kg/m3
343.14 K, 23473 kPa	957.2 ± 1.2 kg/m3
343.14 K, 23512 kPa	957.2 ± 1.2 kg/m3
343.14 K, 23551 kPa	957.3 ± 1.2 kg/m3
343.14 K, 23582 kPa	957.3 ± 1.2 kg/m3
343.14 K, 23619 kPa	957.3 ± 1.2 kg/m3
343.14 K, 23650 kPa	957.2 ± 1.2 kg/m3
343.14 K, 23719 kPa	957.3 ± 1.2 kg/m3
343.14 K, 23782 kPa	957.3 ± 1.2 kg/m3
343.14 K, 23820 kPa	957.3 ± 1.2 kg/m3
343.14 K, 23852 kPa	957.4 ± 1.2 kg/m3
343.14 K, 23887 kPa	957.4 ± 1.2 kg/m3
343.14 K, 23919 kPa	957.4 ± 1.2 kg/m3
343.14 K, 23957 kPa	957.4 ± 1.2 kg/m3
343.14 K, 23990 kPa	957.4 ± 1.2 kg/m3
343.14 K, 24022 kPa	957.6 ± 1.2 kg/m3
343.14 K, 24061 kPa	957.7 ± 1.2 kg/m3
343.14 K, 24094 kPa	957.5 ± 1.2 kg/m3
343.14 K, 24160 kPa	957.5 ± 1.2 kg/m3
343.14 K, 24588 kPa	957.9 ± 1.2 kg/m3
343.14 K, 24654 kPa	957.9 ± 1.2 kg/m3
343.14 K, 24695 kPa	958 ± 1.2 kg/m3
343.14 K, 24730 kPa	958.1 ± 1.2 kg/m3
343.14 K, 24765 kPa	958 ± 1.2 kg/m3
343.14 K, 24806 kPa	958 ± 1.2 kg/m3
343.14 K, 24840 kPa	958.1 ± 1.2 kg/m3
343.14 K, 25030 kPa	958.1 ± 1.2 kg/m3
343.14 K, 25067 kPa	958.2 ± 1.2 kg/m3
343.14 K, 25103 kPa	958.2 ± 1.2 kg/m3
343.14 K, 25183 kPa	958.1 ± 1.2 kg/m3
343.14 K, 25215 kPa	958.2 ± 1.2 kg/m3
343.14 K, 25436 kPa	958.5 ± 1.2 kg/m3
343.14 K, 25465 kPa	958.5 ± 1.2 kg/m3
343.14 K, 25501 kPa	958.5 ± 1.2 kg/m3
343.14 K, 26973 kPa	959.4 ± 1.2 kg/m3
343.14 K, 27040 kPa	959.4 ± 1.2 kg/m3
343.14 K, 27491 kPa	959.6 ± 1.2 kg/m3
343.14 K, 27527 kPa	959.7 ± 1.2 kg/m3
343.14 K, 27558 kPa	959.9 ± 1.2 kg/m3
343.14 K, 27645 kPa	960 ± 1.2 kg/m3
343.14 K, 27672 kPa	959.9 ± 1.2 kg/m3
343.14 K, 27705 kPa	959.9 ± 1.2 kg/m3
343.14 K, 27733 kPa	959.9 ± 1.2 kg/m3
343.14 K, 27761 kPa	959.9 ± 1.2 kg/m3
343.14 K, 27793 kPa	959.9 ± 1.2 kg/m3
343.14 K, 27821 kPa	959.9 ± 1.2 kg/m3
343.14 K, 27849 kPa	960 ± 1.2 kg/m3
343.14 K, 27937 kPa	960.1 ± 1.2 kg/m3
343.14 K, 27971 kPa	960.1 ± 1.2 kg/m3
343.14 K, 27998 kPa	960 ± 1.2 kg/m3
343.14 K, 28026 kPa	960 ± 1.2 kg/m3
343.14 K, 28060 kPa	960 ± 1.2 kg/m3
343.14 K, 28670 kPa	960.5 ± 1.2 kg/m3
343.14 K, 28700 kPa	960.4 ± 1.2 kg/m3
343.14 K, 29403 kPa	960.9 ± 1.2 kg/m3
343.14 K, 33157 kPa	963.2 ± 1.2 kg/m3
343.14 K, 33197 kPa	963.3 ± 1.2 kg/m3
343.14 K, 33238 kPa	963.2 ± 1.2 kg/m3
343.14 K, 33290 kPa	963.2 ± 1.2 kg/m3
343.14 K, 33322 kPa	963.3 ± 1.2 kg/m3
343.14 K, 33371 kPa	963.3 ± 1.2 kg/m3
343.14 K, 33412 kPa	963.3 ± 1.2 kg/m3
343.14 K, 33461 kPa	963.4 ± 1.2 kg/m3
343.14 K, 33503 kPa	963.4 ± 1.2 kg/m3
343.14 K, 33545 kPa	963.5 ± 1.2 kg/m3
343.14 K, 33586 kPa	963.4 ± 1.2 kg/m3
343.14 K, 33637 kPa	963.5 ± 1.2 kg/m3
343.14 K, 33678 kPa	963.7 ± 1.2 kg/m3
343.14 K, 33906 kPa	963.6 ± 1.2 kg/m3
343.15 K, 100.4 kPa	940.6 ± 1.1 kg/m3
343.15 K, 100.5 kPa	940.6 ± 1.1 kg/m3
343.15 K, 100.7 kPa	940.6 ± 1.1 kg/m3
343.15 K, 100.9 kPa	940.6 ± 1.1 kg/m3
343.15 K, 102.6 kPa	940.6 ± 1.1 kg/m3
343.15 K, 106.3 kPa	940.6 ± 1.1 kg/m3
343.15 K, 108.5 kPa	940.6 ± 1.1 kg/m3
343.15 K, 111.8 kPa	940.7 ± 1.1 kg/m3
343.15 K, 116.3 kPa	940.7 ± 1.1 kg/m3
343.15 K, 119.8 kPa	940.6 ± 1.1 kg/m3
343.15 K, 124 kPa	940.5 ± 1.1 kg/m3
343.15 K, 126.8 kPa	940.6 ± 1.1 kg/m3
343.15 K, 129.2 kPa	940.5 ± 1.2 kg/m3
343.15 K, 131.6 kPa	940.6 ± 1.1 kg/m3
343.15 K, 133.4 kPa	940.7 ± 1.1 kg/m3
343.15 K, 134.8 kPa	940.8 ± 1.1 kg/m3
343.15 K, 135.3 kPa	940.7 ± 1.1 kg/m3
343.15 K, 136.2 kPa	940.6 ± 1.1 kg/m3
343.15 K, 136.7 kPa	940.6 ± 1.1 kg/m3
343.15 K, 137.7 kPa	940.7 ± 1.1 kg/m3
343.15 K, 138.6 kPa	940.7 ± 1.1 kg/m3
343.15 K, 139.6 kPa	940.7 ± 1.1 kg/m3
343.15 K, 140.5 kPa	940.6 ± 1.1 kg/m3
343.15 K, 140.7 kPa	940.8 ± 1.1 kg/m3 and 940.7 ± 1.1 kg/m3
343.15 K, 140.8 kPa	940.6 ± 1.1 kg/m3
343.15 K, 141 kPa	940.7 ± 1.1 kg/m3
343.15 K, 141.2 kPa	940.6 ± 1.1 kg/m3
343.15 K, 141.5 kPa	940.6 ± 1.1 kg/m3
343.15 K, 141.9 kPa	940.7 ± 1.1 kg/m3
343.15 K, 142.4 kPa	940.7 ± 1.1 kg/m3
343.15 K, 142.9 kPa	940.6 ± 1.1 kg/m3
343.15 K, 143.1 kPa	940.6 ± 1.1 kg/m3 and 940.7 ± 1.1 kg/m3
